Data: patent US10308644B2, “Heterocyclic compounds as immunomodulators” (Incyte Corporation, priority 2016, dated 2019)

Target: PD-1/PD-L1 (Homo sapiens (Human), UniProt Q9NZQ7)
Assay: PD-1/PD-L1 Homogeneous Time-Resolved Fluorescence (HTRF) Binding Assay
Details: recombinant human PD-1 (3 nM) and PD-L1 (10 nM), 25° C., PBS pH 7.4
In short: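 Fc-tagged human PD-1 (25-167, 3 nM) and His-tagged PD-L1 (19-238, 10 nM) preincubated with inhibitor 40 min in PBS pH 7.4, 0.05% Tween-20, 0.1% BSA, 1% DMSO, 25 °C. Binding detected by HTRF (Eu anti-IgG/APC anti-His, 665/620 nm) after 60 min; IC50 from percent control activity.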

Sequence of PD-1/PD-L1 (Q9NZQ7 19-238): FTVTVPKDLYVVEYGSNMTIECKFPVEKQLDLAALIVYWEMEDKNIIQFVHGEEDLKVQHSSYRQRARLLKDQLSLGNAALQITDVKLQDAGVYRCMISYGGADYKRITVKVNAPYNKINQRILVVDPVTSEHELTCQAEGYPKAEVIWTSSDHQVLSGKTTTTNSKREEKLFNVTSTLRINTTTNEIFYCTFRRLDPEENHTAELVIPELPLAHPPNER

| IC50 [nM] | Structure (SMILES) |
| --- | --- |
| ≤ 10 | Cc1c(-c2nc3cc(CN4CC[C@H](C(=O)O)C4)cc(C#N)c3o2)cccc1-c1cccc(NC(=O)c2nc3c(n2C)CN(C)C3)c1Cl [Example 94, (S)-1-((2-(2′-chloro-3′-(1,5-dimethyl-1,4,5,6-tetrahydropyrrolo[3,4-d]imidazole-2-carboxamido)-2-methylbiphenyl-3-yl)-7-cyanobenzo[d]oxazol-5-yl)methyl)pyrrolidine-3-carboxylic acid] |
| ≤ 10 | CCN1CCc2c(nc(C(=O)Nc3cccc(-c4cccc(-c5nc6cc(CN7CC[C@@](C)(C(=O)O)C7)cc(C#N)c6o5)c4C)c3Cl)n2C)C1 [Example 95, (R)-1-((2-(2′-chloro-3′-(5-ethyl-1-methyl-4,5,6,7-tetrahydro-1H-imidazo[4,5-c]pyridine-2-carboxamido)-2-methylbiphenyl-3-yl)-7-cyanobenzo[d]oxazol-5-yl)methyl)-3-methylpyrrolidine-3-carboxylic acid] |
| ≤ 10 | Cc1c(Nc2nccc3cc(C4CN(CCO)C4)cnc23)cccc1-c1cccc(-c2nc3cc(CN4CC[C@@H](C(=O)O)C4)cc(C#N)c3o2)c1C [Example 96, (R)-1-((7-cyano-2-(3′-(3-(1-(2-hydroxyethyl)azetidin-3-yl)-1,7-naphthyridin-8-ylamino)-2,2′-dimethylbiphenyl-3-yl)benzo[d]oxazol-5-yl)methyl)pyrrolidine-3-carboxylic acid] |
| ≤ 10 | Cc1c(-c2nc3cc(CN4CC[C@@H](C(=O)O)C4)cc(C#N)c3o2)cccc1-c1cccc(Nc2nccc3cc(C4CCCN4)cnc23)c1Cl (stereo partly drawn) [Example 97, (3R)-1-((2-(2′-chloro-2-methyl-3′-(3-(pyrrolidin-2-yl)-1,7-naphthyridin-8-ylamino)biphenyl-3-yl)-7-cyanobenzo[d]oxazol-5-yl)methyl)pyrrolidine-3-carboxylic acid] |
| ≤ 10 | Cc1c(Nc2nccc3cc(CN4CC[C@@H](O)C4)cnc23)cccc1-c1cccc(-c2nc3cc(CN4CC[C@@](C)(C(=O)O)C4)cc(C#N)c3o2)c1C [Example 100, (R)-1-((7-cyano-2-(3′-(3-(((R)-3-hydroxypyrrolidin-1-yl)methyl)-1,7-naphthyridin-8-ylamino)-2,2′-dimethylbiphenyl-3-yl)benzo[d]oxazol-5-yl)methyl)-3-methylpyrrolidine-3-carboxylic acid] |
| ≤ 10 | Cc1c(Nc2nccc3cc(CN4CC[C@@H](O)C4)cnc23)cccc1-c1cccc(-c2nc3cc(CNCCC(=O)O)cc(C#N)c3o2)c1C [Example 101, (R)-3-((7-cyano-2-(3′-(3-((3-hydroxypyrrolidin-1-yl)methyl)-1,7-naphthyridin-8-ylamino)-2,2′-dimethylbiphenyl-3-yl)benzo[d]oxazol-5-yl)methylamino)propanoic acid] |
| ≤ 10 | Cc1c(Nc2nccc(CN3CC[C@@H](O)C3)c2F)cccc1-c1cccc(-c2nc3cc(CN4CC[C@@H](C(=O)O)C4)cc(C#N)c3o2)c1C [Example 102, (R)-1-((7-cyano-2-(3′-(3-fluoro-4-(((R)-3-hydroxypyrrolidin-1-yl)methyl)pyridin-2-ylamino)-2,2′-dimethylbiphenyl-3-yl)benzo[d]oxazol-5-yl)methyl)pyrrolidine-3-carboxylic acid] |
| ≤ 10 | CNC(=O)[C@@H]1CCN(Cc2cc(C#N)c3oc(-c4cccc(-c5cccc(-n6cc7c(n6)CN(C(C)C)CC7)c5Cl)c4C)nc3c2)C1 [Example 103, (R)-1-((2-(2′-chloro-3′-(6-isopropyl-4,5,6,7-tetrahydro-2H-pyrazolo[3,4-c]pyridin-2-yl)-2-methylbiphenyl-3-yl)-7-cyanobenzo[d]oxazol-5-yl)methyl)-N-methylpyrrolidine-3-carboxamide] |
| ≤ 10 | Cc1c(-c2nc3cc(CN4CC[C@@H](C(=O)NCCO)C4)cc(C#N)c3o2)cccc1-c1cccc(-n2cc3c(n2)CN(C(C)C)CC3)c1Cl [Example 104, (R)-1-((2-(2′-chloro-3′-(6-isopropyl-4,5,6,7-tetrahydro-2H-pyrazolo[3,4-c]pyridin-2-yl)-2-methylbiphenyl-3-yl)-7-cyanobenzo[d]oxazol-5-yl)methyl)-N-(2-hydroxyethyl)pyrrolidine-3-carboxamide] |
